From patent publication US9073858B2, “Methods of targeted drug development” (priority 2010, dated 2015)
pIC50: −log10 of the molar value. Values joined by “and” are separate entries in the source; they are usually repeats but may differ in a detail not shown here. Identical values can stand only once. Like-named read-outs stand apart in the source and are kept apart here.

Assays:
[1] = test system: A549 cells; experiment: A549 Cell Proliferation Assay (MTT); assay type: cell-based; details: Homo sapiens; for IC50: read-out: IC50 Value (μM) A549 Cells
Protocol: Cell proliferation is determined using the MTT assay. The MTT cell proliferation assay is a colorimetric assay system which measures the reduction of a tetrazolium component (MTT) into an insoluble formazan product by the mitochondria of viable cells. After incubation of the cells with the MTT reagent, DMSO is added to solubilize the colored crystals and the samples read at a wavelength of 560 nm. The amount of color produced is directly proportional to the number of viable cells. […] L11939) was prepared at 5 mg/ml in PBS. […] Plates were read on the PolarStar plate reader at 560 nm. […] IC50 values were calculated in GraphPad Prism using non-linear regression curve fitting. All statistical analyses was done either in GraphPad Prism or Microsoft Excel. […] Briefly, compounds are added to cells plated in 96-well plates. The cells are allowed to grow for 72 hours before MTT treatment. The effect of the compounds on cell proliferation is analyzed using GraphPad Prism. A549 cells are a non-small cell lung cancer cell line that have wild type EGFR and p53 but have point mutations in KRAS gene which transform it into an oncogene. […] SH30071.03, lot no. ATB31500), 1% Pen Strep (Gibco, cat no. […] On day 2, working solutions of compounds at 200× were prepared. […] Plates were incubated for 72 hours before analyzing them with MTT (as described above).

[2] = test system: H1975 cells; experiment: H1975 Cell Proliferation Assay (MTT); assay type: cell-based; details: Homo sapiens, read-out: IC50 Value (μM) H1975 Cells
Protocol: (§1) Cell proliferation is determined using the MTT assay. The MTT cell proliferation assay is a colorimetric assay system which measures the reduction of a tetrazolium component (MTT) into an insoluble formazan product by the mitochondria of viable cells. After incubation of the cells with the MTT reagent, DMSO is added to solubilize the colored crystals and the samples read at a wavelength of 560 nm. The amount of color produced is directly proportional to the number of viable cells.
(§2) 3-(4,5-Dimethylthiazol-2-yl)-2,5-diphenyltetrazolium Bromide (MTT) dye (Aesar, cat no. L11939) was prepared at 5 mg/ml in PBS. To each well, 20 μl of MTT solution was added to existing media and mixed thoroughly with 5 mins of gentle shaking at room temperature. Plates were incubated at 37° C., 5% CO2 for approximately 2 hrs. After 2-3 hrs incubation, media was aspirated out and plates were patted dry. […] Plates were incubated at 37° C., 5% CO2 for 10 min and mix thoroughly with 5 mins of gentle shaking at room temperature. Plates were read on the PolarStar plate reader at 560 nm. Percent (%) inhibition was calculated as 100%−(OD560 nm experimental-blank)×100%/OD560 nm control-blank. Blank=wells+serum free media+0.5% DMSO. Experimental=wells+cells+treatment+0.5% DMSO. Control=wells+cells+0.5% DMSO. IC50 values were calculated in GraphPad Prism using non-linear regression curve fitting. All statistical analyses was done either in GraphPad Prism or Microsoft Excel.
Briefly, compounds are added to cells plated in 96-well plates. The cells are allowed to grow for 72 hours before MTT treatment. The effect of the compounds on cell proliferation is analyzed using GraphPad Prism.

[3] = test system: HT-29 cells; experiment: HT-29 Cell Proliferation Assay (MTT); assay type: cell-based; details: for IC50: read-out: IC50 Value (μM) HT-29 Cells
Protocol: as §1, §2
Briefly, compounds are added to cells plated in 96-well plates. […] The effect of the compounds on cell proliferation is analyzed using GraphPad Prism.
HT-29 cells are a colon cancer cell line that is utilized to assess the ability of compounds to inhibit the proliferation of cells in tumors of the colon.
For the HT-29 cell proliferation assay, on day 1, HT-29 cells are seeded at 3,000 cells/well in 100 μl media containing 10% FBS, 1× Pen-Strep, and 1× L-Glutamine in 96 well, tissue culture-treated plates. […] Working solutions of compounds were prepared (at […] in 100% DMSO). To 200 μl media, 20 μl of a 5× compound (diluted in plain media) was added for a final DMSO concentration of 0.5%. […] On day 5, plates were analyzed for cell growth using the MTT assay.

[4] = Stability on incubation with mouse liver microsomes (MLM); assay type: in vitro ADME; details: percentage left after incubation with mouse liver microsomes for 30 minutes
Protocol: (§3) Stability of hydroxyquinoline analogs were determined (see e.g., TABLE 18). MLM represents the percentage left after incubation with mouse liver microsomes for 30 minutes. HLM represents the percentage left after incubation with human liver microsomes for 30 minutes.
(§4) Stability of analogs having a benzaldehyde derived ring were determined (see e.g., TABLE 18). MLM represents the percentage left after incubation with mouse liver microsomes for 30 minutes. HLM represents the percentage left after incubation with human liver microsomes for 30 minutes.

[5] = Stability on incubation with human liver microsomes (HLM); assay type: in vitro ADME; details: percentage left after incubation with human liver microsomes for 30 minutes
Protocol: as §3, §4

Row | Structure (SMILES) | IC50 ([1]; A549, 72 h) [µM] | IC50 ([2]; NCI-H1975, 72 h) [µM] | MLM % Remaining@ 30 Min [4] [%] | HLM % Remaining@ 30 Min [5] [%] | also measured
1 | Oc1c(C(Nc2cc(Cl)c(Cl)cn2)c2ccc(Cl)c(C(F)(F)F)c2)ccc2cccnc12 (centres unmarked) [AD4-13184] | 0.11 | 0.24 |  |  | IC50 ([3]; Homo sapiens, HT-29, 72 h): 2.2 µM
2 | Oc1c(C(Nc2cc(Cl)ccn2)c2ccc(C(F)(F)F)c(F)c2)ccc2cccnc12 (centres unmarked) [AD4-13048] | 0.18 | 0.17 |  |  | 
3 | Oc1c(C(Nc2cc(Cl)c(Cl)cn2)c2cc(Cl)cc(Cl)c2Cl)ccc2cccnc12 (centres unmarked) [AD4-13180] | 0.1 | 0.86 |  |  | IC50 ([3]; Homo sapiens, HT-29, 72 h): 1.7 µM
4 | Oc1c(C(Nc2ncc(Cl)cc2F)c2cccc(C(F)(F)F)c2)ccc2cccnc12 (centres unmarked) [AD4-13145] | 0.16 | 1.7 |  |  | IC50 ([3]; Homo sapiens, HT-29, 72 h): 2.1 µM
5 | Oc1c(C(Nc2ncc(F)cc2F)c2ccc(F)cc2Cl)ccc2cccnc12 (centres unmarked) [AD4-13146] | 0.14 | 0.24 |  |  | IC50 ([3]; Homo sapiens, HT-29, 72 h): 2 µM
6 | Oc1c(C(Nc2ncc(F)cc2F)c2ccc(Cl)c(Cl)c2)ccc2cccnc12 (centres unmarked) [AD4-13182] | 0.19 | 1.8 |  |  | IC50 ([3]; Homo sapiens, HT-29, 72 h): 8.3 µM
7 | Cc1nc(NC(c2cc(Cl)cc(Cl)c2Cl)c2ccc3cccnc3c2O)ccc1Cl (centres unmarked) [AD4-13209] | 0.17 | 0.14 |  |  | IC50 ([3]; Homo sapiens, HT-29, 72 h): 2.3 µM
8 | Oc1c(C(Nc2cc(Cl)ccn2)c2cc(C(F)(F)F)ccc2Cl)ccc2cccnc12 (centres unmarked) [AD4-13060] | 0.19 | 0.58 |  |  | 
9 | Cc1cccc(NC(c2cc(Cl)ccc2Cl)c2ccc3ccc(C)nc3c2O)n1 (centres unmarked) [AD4-13090] |  |  |  |  | IC50 ([1]; A549, MTT, 72 hours): 0.16 µM; IC50 ([2]; NCI-H1975, MTT, 72 hours): 1.3 µM; IC50 ([3]; Homo sapiens, HT-29, MTT, 72 hrs): 3.7 µM
10 | Oc1c(C(Nc2ccc(C(F)(F)F)cn2)c2ccc(Cl)c(Cl)c2)ccc2cccnc12 (centres unmarked) [AD4-13030] | 0.17 | 0.22 |  |  | 
11 | Oc1c(C(Nc2ccc(C(F)(F)F)cn2)c2ccc(Cl)cc2Cl)ccc2cccnc12 (centres unmarked) [AD4-13033] | 0.13 | 0.23 | 84 | 100 | 
12 | Cc1nc(NC(c2cc(Cl)cc(Cl)c2)c2ccc3cccnc3c2O)c(Cl)cc1Cl (centres unmarked) [AD4-13223] | 0.11 |  |  |  | IC50 ([3]; Homo sapiens, HT-29, 72 h): 2.5 µM
13 | Oc1c(C(Nc2ccc(C(F)(F)F)cn2)c2ccc(C(F)(F)F)cc2F)ccc2cccnc12 (centres unmarked) [AD4-13031] | 0.12 | 0.24 | 87 | 93 | 
14 | Cc1cc(NC(c2ccc(Cl)cc2Cl)c2ccc3cccnc3c2O)ncc1Cl (centres unmarked) [AD4-13123] | 0.12 | 0.36 | 30 | 84 | 
15 | CCc1c(Cl)cnc(NC(c2ccc(Cl)cc2Cl)c2ccc3cccnc3c2O)c1F (centres unmarked) [AD4-13218] | 0.086 |  |  |  | pIC50 ([1]; A549, read-out: IC50, cell proliferation in A549 or H1975 cells): ≥ 7.00; IC50 ([3]; Homo sapiens, HT-29, 72 h): 0.92 µM
16 | CS(=O)(=O)CCNCc1ccc(-c2ccc3ncnc(Nc4ccc(OCc5cccc(F)c5)c(Cl)c4)c3c2)o1 [Tykerb, reference compound] |  |  |  |  | pIC50 ([3]; Homo sapiens, HT-29, 48 h, read-out: IC50, Comparison of Incubation Times in HT-29 Cell Proliferation Assay): 5.57; pIC50 ([3]; Homo sapiens, HT-29, 72 h, read-out: IC50, Comparison of Incubation Times in HT-29 Cell Proliferation Assay): 5.64; pIC50 ([3]; Homo sapiens, HT-29, read-out: HT-29 Cell Proliferation Assay Results (IC50)): 5.30; pIC50 ([3]; Homo sapiens, HT-29, read-out: IC50 from dose-response curves of FIG. 11, HT-29 cells): 5.57; pIC50 ([3]; read-out: HT-29 Cell Proliferation Assay Results (IC50)): 5.29 and 5.07 and 5.04; pIC50 ([3]; read-out: IC50, Comparison of Incubation Times in HT-29 Cell Proliferation Assay): 5.36 and 5.38
17 | CCc1cc(Cl)cnc1NC(c1ccc(Cl)cc1Cl)c1ccc2cccnc2c1O (centres unmarked) [AD4-13217] | 0.12 |  |  |  | IC50 ([3]; Homo sapiens, HT-29, 72 h): 0.96 µM
18 | Oc1c(C(Nc2ccc(C(F)(F)F)cn2)c2ccc(Cl)c(C(F)(F)F)c2)ccc2cccnc12 (centres unmarked) [AD4-13032] | 0.17 | 0.21 |  |  | 
19 | Oc1c(C(Nc2ccc(C(F)(F)F)cn2)c2ccc(C(F)(F)F)cc2)ccc2cccnc12 (centres unmarked) [AD4-13028] | 0.14 | 0.26 |  |  | 

Row | Structure (SMILES) | IC50 ([1]; A549, 72 h) [µM] | IC50 ([2]; NCI-H1975, 72 h) [µM] | MLM % Remaining@ 30 Min [4] [%] | HLM % Remaining@ 30 Min [5] [%] | also measured
20 | Cc1cccc(NC(c2ccc(F)cc2Cl)c2ccc3cccnc3c2O)n1 (centres unmarked) [AD4-13024] |  |  | 20 | 47 | 
21 | Cc1cccc(NC(c2ccc(C)c(F)c2F)c2ccc3ccc(C)nc3c2O)n1 (centres unmarked) [AD4-13022] |  |  | 5 | 36 | 
22 | Cc1cc(NC(c2cccc(C(F)(F)F)c2)c2ccc3cccnc3c2O)ncc1Cl (centres unmarked) [AD4-13107] |  |  | 28 | 83 | 
23 | Oc1c(C(Nc2ccc(Cl)cn2)c2cc(C(F)(F)F)ccc2Cl)ccc2cccnc12 (centres unmarked) [AD4-13052] | 0.13 | 0.24 |  |  | 
24 | Cc1cccc(NC(c2cc(Cl)cc(Cl)c2)c2ccc3cccnc3c2O)n1 (centres unmarked) [AD4-12913] |  |  | 41 | 61 | 
25 | Cc1ccc2ccc(C(Nc3ncc(Cl)cc3C)c3ccc(Cl)cc3Cl)c(O)c2n1 (centres unmarked) [AD4-13200] |  |  | 67 | 94 | 
26 | Oc1c(C(Nc2ccc(Cl)cn2)c2cc(Cl)cc(Cl)c2)ccc2cccnc12 (centres unmarked) [AD4-13094] |  |  | 52 | 85 | 
27 | Oc1c(C(Nc2cccnc2)c2cccc(Cl)c2Cl)ccc2cccnc12 (centres unmarked) [AD4-12908] |  |  | 6 | 48 | 
28 | COc1cc(Cl)cnc1NC(c1cc(Cl)cc(Cl)c1)c1ccc2cccnc2c1O (centres unmarked) [AD4-13216] | 0.12 |  |  |  | IC50 ([3]; Homo sapiens, HT-29, 72 h): 1.6 µM
29 | Oc1c(C(Nc2ccc(C(F)(F)F)nc2)c2ccc(C(F)(F)F)cc2F)ccc2cccnc12 (centres unmarked) [AD4-13065] |  |  | 47 | 83 | 
30 | Cc1cc(Cl)cnc1NC(c1ccc(F)cc1F)c1ccc2cccnc2c1O (centres unmarked) [AD4-13068] |  |  | 46 | 96 | 
31 | Cc1nc(NC(c2cc(Cl)cc(Cl)c2Cl)c2ccc3cccnc3c2O)c(Cl)cc1Cl (centres unmarked) [AD4-13213] | 0.16 |  |  |  | IC50 ([3]; Homo sapiens, HT-29, 72 h): 5.4 µM
32 | Oc1c(C(Nc2ccc(C(F)(F)F)nc2)c2ccc(C(F)(F)F)cc2)ccc2cccnc12 (centres unmarked) [AD4-13063] |  |  | 42 | 80 | 
33 | Cc1cc(NC(c2ccc(Cl)c(Cl)c2)c2ccc3cccnc3c2O)ncc1Cl (centres unmarked) [AD4-13166] |  |  | 71 | 100 | 
34 | Cc1cc(NC(c2cc(Cl)cc(Cl)c2)c2ccc3cccnc3c2O)ncc1Cl (centres unmarked) [AD4-13122] |  |  | 60 | 94 | 
35 | Cc1ccnc(NC(c2ccc(Cl)cc2Cl)c2ccc3cccnc3c2O)c1 (centres unmarked) [AD4-12912] |  |  | 10 | 38 | 
36 | Oc1c(C(Nc2ccc(C(F)(F)F)cn2)c2cc(C(F)(F)F)ccc2Cl)ccc2cccnc12 (centres unmarked) [AD4-13056] |  |  | 85 | 88 | 
37 | Oc1c(C(Nc2cc(Cl)ccn2)c2ccc(C(F)(F)F)cc2F)ccc2cccnc12 (centres unmarked) [AD4-13046] | 0.16 | 0.12 |  |  | 
